In patent publication US6737383B1, “Herbicidal oxadiazolidines” (priority 1999, dated 2004):

How the values were obtained:
sourgrass = test: Test D sourgrass; assay type: in vivo, Trichachne insularis; details: Preemergence, 0 to 100 scale
Excerpt: Seeds, tubers, or plant parts of Alexandergrass (Brachiaria plantaginea), bermuda-grass (Cynodon dactylon), common pursiane (Portulaca oleracea), common ragweed (Ambrosia elatior), common groundsel (Senecio vulgaris), dallisgrass (Paspalum dilatatum), goosegrass (Eleusine indica), guineagrass (Panicum maximum), itchgrass (Rottboellia exaltata), Johnson grass (Sorghum halepense), large crabgrass (Digitaria sanguinalis), pitted morningglory (Ipomoea lacunosa), purple nutsedge (Cyperus rotundus), sandbur (Cenchrus echinatus), sourgrass (Trichachne insularis), Spanishneedles (Bidens bipinnata), surinam grass (Brachiaria decumbens) and tall mallow (Malva sylvestris) were planted into greenhouse pots of flats containing greenhouse planting medium. Plant species were grown in separate pots or individual compartments. Preemergence applications were made within one day of planting the seed or plant part.
Test chemicals were formulated in a non-phytotoxic solvent mixture which included a surfactant and applied preemergence to the surface of the pot containing seeds in a sandy loam soil. Untreated control pots and treated pots were placed in the greenhouse for growth and visually evaluated for injury 14 to 21 days after herbicide application. Plant response ratings, summarized in Table C, are based on a 0 to 100 scale where 0 is no injury and 100 is complete control. A dash (−) response means no test result.

cotton = test: Test C postemergence cotton; assay type: in vivo, Gossypium hirsutum; details: 0 to 100 scale, 0 no effect, 100 complete control
How it was run: (§1)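 Greenhouse postemergence test: compound applied in solvent/surfactant formulation to established plants; visual scoring 0–100 against untreated controls after roughly two to three weeks (14–21 days).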

eastern black nightshade = test: Test C postemergence eastern black nightshade; assay type: in vivo, Solanum ptycanthum; details: 0 to 100 scale, 0 no effect, 100 complete control
Description: (§2) Compounds evaluated in this test were formulated in a non-phytotoxic solvent mixture which included a surfactant and applied to plants that were grown for various periods of time before treatment (postemergence application). A mixture of sandy loam soil and greenhouse potting mix in a 60:40 ratio was used for the postemergence test.
(§3) Plantings of these crops and weed species were adjusted to produce plants of appropriate size for the postemergence test. All plant species were grown using normal greenhouse practices. Crop and weed species include arrowleaf sida (Sida rhombifolia), barnyardgrass (Echinochloa crus-galli), cocklebur (Xanthium strumarium), common ragweed (Ambrosia elatior), corn (Zea mays), cotton (Gossypium hirsutum), eastern black nightshade (Solanum ptycanthum), fall panicum (Panicum dichotomiflorum), field bindweed (Convolvulus arvensis), giant foxtail (Setaria faberii), hairy beggarticks (Bidens pilosa), ivyleaf morningglory (Ipomoea hederacea), johnsongrass (Sorghum halepense), ladysthumb smartweed (Polygonum persicaria), lambsquarters (Chenopodium album), large crabgrass (Digitaria sanguinalis), purple nutsedge (Cyperus rotundus), redroot pigweed (Amaranthus retroflexus), soybean (Glycine max), surinam grass (Brachiaria decumbens), velvetleaf (Abutilon theophrasti) and wild poinsettia (Euphorbia heterophylla).
(§4) Treated plants and untreated controls were maintained in a greenhouse for approximately 14, to 21 days, after which all treated plants were compared to untreated controls and visually evaluated. Plant response ratings, summarized in Table C, were based upon a 0 to 100 scale where 0 was no effect and 100 was complete control. A dash response (−) means no test result.

hairy beggarticks = test: Test C postemergence hairy beggarticks; assay type: in vivo, Bidens pilosa; details: 0 to 100 scale, 0 no effect, 100 complete control
How it was run: as §1

johnsongrass = test: Test C postemergence johnsongrass; assay type: in vivo, Sorghum halepense; details: 0 to 100 scale, 0 no effect, 100 complete control
Description: as §2, §3, §4

large crabgrass = test: Test C postemergence large crabgrass; assay type: in vivo, Digitaria sanguinalis; details: 0 to 100 scale, 0 no effect, 100 complete control
How it was run: as §1

surinam grass = test: Test C postemergence surinam grass; assay type: in vivo, Brachiaria decumbens; details: 0 to 100 scale, 0 no effect, 100 complete control
Description: as §2, §3, §4

Setaria faberii (SETFA) = test: Test F preemergence, alone and in mixture with rimsulfuron, SETFA; assay type: in vivo; details: 21 days after treatment, 0-100 scale
Description: Abutilon theophrasti (ABUTH), Chenopodium album (CHEAL), Amaranthus rudis (AMATA), Setaria faberii (SETFA), Panicum dichotomiflorum (PANDI), and Digitaria sanguinalis (DIGSA) were grown from seed in pots of an artificial potting mixture in a greenhouse. Compounds of the present invention were applied at 70 and 105 g ai/ha preemergence. Rimsulfuron was applied at 8.8 and 17.5 g ai/ha. Mixtures of the compounds of the present invention and rimsulfuron were also applied.
Following application, the plants were maintained by watering as needed. A fertilizer solution of Peter's 20-20-20 (10 pounds/5 gallons of water) plus Sprint 330, a Iron Chelate micronutrient, (113.5 grams/5 gallons of water) was injected into the water with an Anderson fertilizer injection system to provide approximately 219 ppm of nitrogen with each watering. Artificial lighting was used to supplement natural light to produce a 14 hour photoperiod and: an additional one hour light period was used between 1:00 am to 2:00 am for a night interruption. Greenhouse temperatures were targeted for 27° C. in the day and 21° C. at night. At 21 days after treatment, all plants were evaluated for injury as compared to control plants that were sprayed only with non-phytotoxic solvent.
Colby's equation was used to calculate the expected additive herbicidal effect of the mixtures of Compound 21 and the mixture partners listed above. […]

[1] = test system: Digitaria sanguinalis (DIGSA); test: Test F preemergence, alone and in mixture with rimsulfuron, DIGSA; assay type: in vivo; details: 21 days after treatment, 0-100 scale
How it was run: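 Greenhouse pot plants treated preemergence with compound at 70 and 105 g ai/ha, rimsulfuron at 8.8 and 17.5 g ai/ha, or mixtures; 27° C day/21° C night, 14 hour photoperiod. Injury scored at 21 days after treatment against solvent-sprayed controls; expected additive effect of mixtures calculated by Colby's equation.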

[2] = Rate 64 g/ha, 0 no injury, 100 complete control
[3] = Alone: Cmpd. rate 70, Rimsulfuron 0
[4] = Alone: Cmpd. rate 105, Rimsulfuron 0

`Cc1ccc(-n2c(=O)on(C(=O)N(c3ccc(F)cc3F)C(C)C)c2=O)c(C)c1` [Compound 24] was tested, and the “Plant response rating, Sourgrass” value (sourgrass; Rate 32 g/ha, 0 no injury, 100 complete control) was 40, the “Plant response rating, Sourgrass” value (sourgrass; [2]) was 85 and the “Sourgrass plant response rating” value (sourgrass; [2]) was 100. The “Sourgrass plant response rating” value (sourgrass; Rate 125 g/ha, 0 no injury, 100 complete control) was 100, the “Plant response rating, Sourgrass” value (sourgrass; Rate 250 g/ha) was 100 and the “Plant response rating, Sourgrass” value (sourgrass; Rate 500 g/ha) was 100.

For `CC(C)N(C(=O)n1oc(=O)n(C(C)C)c1=O)c1ccccc1` [Compound 113], the “Plant response rating Cotton” value (cotton; Rate 140 g/ha) was 10, the “Plant response rating Cotton” value (cotton; Rate 280 g/ha) was 15 and the “Plant response rating Cotton” value (cotton; Rate 560 g/ha) was 50. For the same compound, the “Plant response rating Cotton” value (cotton; Rate 1120 g/ha) was 80, the “Plant response rating E. blacknightsh” value (eastern black nightshade; Rate 140 g/ha) was 50 and the “Plant response rating E. blacknightsh” value (eastern black nightshade; Rate 280 g/ha) was 50. For the same compound, the “Plant response rating E. blacknightsh” value (eastern black nightshade; Rate 1120 g/ha) was 95, the “Plant response rating H. beggarticks” value (hairy beggarticks; Rate 140 g/ha) was 5 and the “Plant response rating H. beggarticks” value (hairy beggarticks; Rate 280 g/ha) was 30. For the same compound, the “Plant response rating H. beggarticks” value (hairy beggarticks; Rate 560 g/ha) was 30, the “Plant response rating H. beggarticks” value (hairy beggarticks; Rate 1120 g/ha) was 50 and the “Plant response rating, Johnsongrass” value (johnsongrass; Rate 140 g/ha) was 0. The “Plant response rating, Johnsongrass” value (johnsongrass; Rate 280 g/ha) was 20, the “Plant response rating, Johnsongrass” value (johnsongrass; Rate 560 g/ha) was 60 and the “Plant response rating, Johnsongrass” value (johnsongrass; Rate 1120 g/ha) was 95. The “Plant response rating, Large crabgrass” value (large crabgrass; Rate 140 g/ha) was 0, the “Plant response rating, Large crabgrass” value (large crabgrass; Rate 280 g/ha) was 85 and the “Plant response rating, Large crabgrass” value (large crabgrass; Rate 560 g/ha) was 95. The “Plant response rating, Large crabgrass” value (large crabgrass; Rate 1120 g/ha) was 95, the “Plant response rating, Surinam grass” value (surinam grass; Rate 140 g/ha) was 0 and the “Plant response rating, Surinam grass” value (surinam grass; Rate 280 g/ha) was 40. For the same compound, the “Plant response rating, Surinam grass” value (surinam grass; Rate 560 g/ha) was 90, the “Plant response rating, Surinam grass” value (surinam grass; Rate 1120 g/ha) was 90 and the “SETFA Observed” value (Setaria faberii (SETFA); [3]) was 60%. The “SETFA Observed” value (Setaria faberii (SETFA); [4]) was 65%, the “DIGSA Observed” value [1, 3] was 95% and the “DIGSA Observed” value [1, 4] was 70%.
